Source: patent publication USRE49351E1, “Cytoprotective agent” (Biogen MA Inc., priority 2009, dated 2023)
Marks after values point to notes of the source that are not given here.

Key:
[1] = modified H-ORAC (mH-ORAC) assay; format: biochemical; conditions: acetone solution, acetone final concentration 1.25%
Procedure: To study the free radical scavenging activity of a triprenyl phenol compound, the following H-ORAC (hydrophilic oxygen radical absorbance capacity) assay, and modified H-ORAC (mH-ORAC) assay were conducted.
SMTP compounds evaluated by H-ORAC were used respectively in a form of a sodium salt aqueous solution, and the compounds evaluated by mH-ORAC were used respectively in a form of an acetone solution.
In H-ORAC a test compound was diluted appropriately with a buffer solution (75 mM phosphate buffer solution, pH 7.4) and used for measurement. In mH-ORAC a test compound was diluted appropriately by a 50% (v/v) acetone solution, prepared by diluting an acetone solution with water, to prepare a solution of 40-fold the final concentration. […] As for the reference material Trolox, 500 μM/buffer solution was diluted appropriately with a buffer solution.
To a 96-well microplate (transparent, flat bottom, black wall) 50 μL of a test compound solution or a Trolox solution was placed, and additionally 100 μL of a fluorescein 140 nM/buffer solution as a fluorescent substance was added (final concentration 70 nM), followed by incubation at 37° C. for […].
As a free radical generator, 50 μL of a 48 mM/buffer solution of 2,2′-azobis(amidinopropane)dihydrochloride was added (final concentration 12 mM), and fluorescence intensity at fluorescence wavelength of 535 nm with excitation wavelength of 485 nm was measured at 2 min intervals for 90 min. The calibration curve was prepared between the Trolox final concentrations of 5 to 15 μM. The measurement was conducted by changing the concentration with n=3, and plotted on a diagram with time on the abscissa and the fluorescence intensity on the ordinate. Therewith evaluation was made using the value obtained by reducing the area under the curve for the blank from the area under the curve for the sample. The result was expressed as an equivalent to Trolox.

[2] = tested on: crab-eating monkey cerebral infarction model; assay: Crab-eating monkey cerebral infarction model (thrombotic middle cerebral artery occlusion); format: in vivo; conditions: mean ± S.D.
Procedure: A reducing effect of a cerebral infarction size and an improving effect of a neurological symptom of SMTP-7 in a crab-eating monkey cerebral infarction model were studied according to the following testing method.
SMTP-7 administration group: 10 mg/kg, 2 to 3 year old male crab-eating monkeys, 6 monkeys
Administration method of test substance: The administration volume was set at 10 mL/kg. A Surflo indwelling needle was indwelled in the left saphenous vein, 1 mg/kg (1 mL/kg) was administered 1 hour after ischemia as a bolus over 5 sec, then 9 mg/kg (9 mL/kg) was administered continuously over 30 min using a syringe pump.
Preparation of administration liquid: SMTP-7 was dissolved in a physiological saline solution at 1 mg/mL. More particularly, to 70.0 mg of a SMTP-7 sodium salt (containing 63.1 mg of SMTP-7) was added 63.1 mL of a physiological saline solution, and the liquid was stirred by a magnetic stirrer under heating in a hot-water bath (37° C.) for dissolution. An ultrasonic treatment was conducted according to need. After dissolution the liquid was subjected to filter sterilization by a sterile filter (0.22 μm, made of cellulose acetate). The administration liquid was prepared before using. After the preparation it was kept in a 37° C. hot-water bath until immediately before the use, and the administration was finished within 4 hours after the preparation.
The treatment of cerebral infarction was conducted according to the standard experimental protocol (SPHPR710-15A). More particularly, after extirpating the right eyeball, the eyeground bone outside the optic nerve exit was removed by a dental drill to expose the dura mater. The dura mater was carefully detached to identify the middle cerebral artery. The origin part of the middle cerebral artery was separated from the arachnoid mater and a light irradiation probe for generating a thrombus was fixed on the middle cerebral artery. At the distal end of the probe a probe of a pulse Doppler blood flowmeter (Crystal Bio, PDV-20) was placed. An intravenous administration of rose bengal (Wako Pure Chemical Industries, Ltd.) (20 mg/kg) over 6 min was initiated and an irradiation with green light with the wavelength of 540 nm (1.40 million LUX) was conducted for 20 min to block the middle cerebral artery by a thrombus. The initiation time of the light irradiation and the administration of the rose Bengal was defined as the initiation time of ischemia. The middle cerebral artery blood flow was measured by the pulse Doppler blood flowmeter continuously for 2 hours from the initiation time of the light irradiation and then the incision was closed. A series of procedures were carried out completely under an operating microscope to minimize intraoperative hemorrhage to the utmost. Further, the rectal temperature of an animal under operation was monitored, and the animal was kept warmed by a heating pad, so as to maintain the body temperature of the animal in a physiological range (37.0 to 38.5° C.).
Neurological symptoms as described below were observed 24 hours after ischemia according to J. Neurosci. Meth., 2001; 105: 45-53.
After the neurological symptom observation 24 hours after the operation, a euthanasia treatment was conducted by means of a megadose of pentobarbital and the brain was extirpated. Six mm-thick coronal slices were prepared and photographed for quantitative determination of a hemorrhagic infarction. Thereafter, the infarction area was stained in a 2% TTC solution and photographs were taken for quantitative determination of an infarction size. For evaluations of the hemorrhagic infarction and the infarction area, the occipital lobe side of each slice was used.
Photographs of an individual were converted to TIF images and hemorrhagic infarction areas and the respective infarction areas were marked by Photoshop 7.0 (Adobe), which sizes were then measured by Scion Image 0.4.0.3 (Scion Corporation). […]

[3] = 10 mg/kg i.v. 1 hour after ischemia, 24 hours after ischemia

## CC(C)=CCC/C(C)=C/CC[C@@]1(C)Oc2c(c(O)cc3c2CN(CCC[C@@H](C(=O)O)N2Cc4c(cc(O)c5c4O[C@](C)(CC/C=C(\C)CCC=C(C)C)[C@@H](O)C5)C2=O)C3=O)C[C@@H]1O [SMTP-7]
[1]
  free radical scavenging activity, Trolox equivalent: 1.82 ± 0.27 molTE/mol
[2]; 0~60 min after ischemia (before administration), 10 mg/kg i.v.
  Occlusion Time: 45.5 ± 3.8 min
[2]; [3]
  Hemorrhagic infarction area size: 14.1 ± 7.4 (P < 0.05) mm^2
  cerebral infarction size: Basal ganglion: 1419.7 ± 633.8* mm^3
  cerebral infarction size: Cerebral cortex: 237.8 ± 198.8 mm^3
  cerebral infarction size: Total: 1745.1 ± 749.5* mm^3
  cerebral infarction size: White matter: 87.7 ± 71.8 mm^3
  neurological symptom score: Consciousness: 7.7 ± 2.0
  neurological symptom score: Motor system: 10.7 ± 2.7
  neurological symptom score: Sensory system: 7.5 ± 1.6
  neurological symptom score: Skeletal muscle coordination system: 5.3 ± 2.4
  neurological symptom score: Total: 31.2 ± 7.9
[2]; 10 mg/kg i.v. 1 hour after ischemia, measured for 2 hours, 6 monkeys
  Total Occlusion Time: 86.8 ± 18.8 min
[2]; 10 mg/kg i.v. 1 hour after ischemia, middle cerebral artery blood flow, 6 monkeys
  Time to Occlusion: 6.9 ± 2.5 min
[2]; 60~120 min after ischemia, 10 mg/kg i.v. 1 hour after ischemia
  Occlusion Time: 41.3 ± 18.9 min
